Where two headings read alike, the source gives them in different places.
Assays:
p38 [1] = biological target: T1, p38 (Homo sapiens, UniProt O15264); assay: Eurofins kinase selectivity profile, p38; assay type: biochemical; conditions: p38-delta/SAPK4(h), read-out: Inhibition rate (%)
T1 construct: purchased Eurofins (Celle Lévescault)
T1 sequence (O15264 1-365): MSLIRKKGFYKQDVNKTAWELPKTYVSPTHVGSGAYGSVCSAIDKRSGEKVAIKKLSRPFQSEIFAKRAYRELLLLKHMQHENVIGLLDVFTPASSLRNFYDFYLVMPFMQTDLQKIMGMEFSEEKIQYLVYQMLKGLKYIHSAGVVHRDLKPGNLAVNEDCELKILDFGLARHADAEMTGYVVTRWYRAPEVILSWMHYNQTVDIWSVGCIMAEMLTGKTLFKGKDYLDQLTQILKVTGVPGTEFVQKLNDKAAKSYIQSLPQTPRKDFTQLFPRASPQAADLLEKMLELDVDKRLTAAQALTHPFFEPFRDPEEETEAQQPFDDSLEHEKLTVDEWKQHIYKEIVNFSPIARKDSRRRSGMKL
Experimental: (§1) Subsequently, to ascertain whether the high potency of compound 11 was specific for MK2, an additional 380 human recombinant protein kinases were screened.
(§2) To assess the impact of various compounds on MK2 kinase activity, we utilized the ADP‐Glo Assay Kit (Promega) following the manufacturer's instructions. Luminescence measurements were taken using a SpectraMax Paradigm reader. The inhibition percentage was calculated using the following formula: ((specific signalDMSO control − specific signal inhibitor)/(specific signalDMSO control)) × 100%. The IC50 values were determined employing dose–response curve fitting via Prism (Graph Pad). Additionally, Eurofins company (Celle Lévescault) conducted the analysis on compound 11’s inhibitory activity against 380 other human recombinant kinases at various concentrations.

p38 [2] = biological target: T2, p38 (Homo sapiens, UniProt P53778); assay: Eurofins kinase selectivity profile, p38; assay type: biochemical; conditions: p38-gamma/SAPK3(h), read-out: Inhibition rate (%)
T2 construct: purchased Eurofins (Celle Lévescault)
T2 sequence (P53778 1-367): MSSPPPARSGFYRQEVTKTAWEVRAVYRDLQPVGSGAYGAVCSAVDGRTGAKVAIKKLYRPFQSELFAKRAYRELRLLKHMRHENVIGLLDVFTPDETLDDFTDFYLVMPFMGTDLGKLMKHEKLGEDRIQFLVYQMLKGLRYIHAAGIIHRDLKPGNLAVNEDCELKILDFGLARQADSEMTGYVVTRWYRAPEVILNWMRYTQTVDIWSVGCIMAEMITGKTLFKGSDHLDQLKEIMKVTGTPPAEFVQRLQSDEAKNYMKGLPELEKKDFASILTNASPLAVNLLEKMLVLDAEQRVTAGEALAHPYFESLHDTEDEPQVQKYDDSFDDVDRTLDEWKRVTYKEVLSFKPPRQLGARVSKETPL
Experimental: as §1, §2

p38 [3] = biological target: T3, p38 (Homo sapiens, UniProt Q15759); assay: Eurofins kinase selectivity profile, p38; assay type: biochemical; conditions: p38-beta/SAPK2b(h), read-out: Inhibition rate (%)
T3 construct: purchased Eurofins (Celle Lévescault)
Experimental: as §1, §2

p38 [4] = biological target: T4, p38 (Homo sapiens, UniProt Q16539); assay: Eurofins kinase selectivity profile, p38; assay type: biochemical
T4 construct: purchased Eurofins (Celle Lévescault)
Experimental: as §1, §2

p38 [5] = assay: Eurofins kinase selectivity profile, p38; assay type: biochemical, human
Experimental: as §1, §2

[6] = test system: CD206 and Arg-1 expression in BMDM; assay: Flow cytometry of CD206 and Arg-1 in IL-4/IL-13 stimulated BMDM; assay type: cell-based, mouse; conditions: IL-4/IL-13, 48 h
Text: A previous study has reported that MK2 fostered M2‐like polarization of TAMs, driving a protumor and proangiogenic phenotype which in turn accelerates tumor progression.[21] We thus assessed the influence of compound 11 on macrophage polarization and function. Our experiments used human THP‐1 monocyte induced macrophages, mouse RAW264.7 macrophages, and mouse bone marrow‐derived macrophages (BMDM). These cells were induced into M2‐like macrophages using the classic IL‐4 and IL‐13 stimuli.
FIGURE 5 Inhibition of pro‐tumorigenic M2‐like polarization in macrophages by compound 11. (A–C) RT‐PCR analysis highlights the impact of compound 11 on MRC1 and ARG‐1 mRNA expression in various macrophage cells treated with IL‐4/IL‐13 alone or combined with compound 11 for 12 h or 24 h. (D) CD206 and Arg‐1 expression in bone marrow‐derived macrophages (BMDM) cells via flow cytometry post 48 h treatment of compound 11 and IL‐4/IL‐13. (E) The treatment effects of compound 11 in THP‐1 cells using western blot analysis. Cells were pretreated with compound 11 for 1 h and followed by IL‐4/IL‐13 treatment (30 min). (F) The influence of MK2 siRNA on MRC1 and ARG‐1 mRNA expression in THP‐1 cells by RT‐PCR analysis post‐IL‐4/IL‐13 stimulation (12 h). […] Data are shown as the mean ± SD. ^* p < 0.05; ^*** p < 0.001 versus the vehicle group, determined by unpaired t test. […]

[7] = Cell viability assay (CCK-8), HEK293; assay type: cell-based; conditions: HEK293 cells (embryo kidney), HEK293, human embryo kidney, read-out: IC50 (μM) mean ± SD, cytotoxicity
Experimental: In cellular experiments, cells are seeded into either 6-well or 96-well plates and incubated overnight, proceeding with treatments as described in the figure legends or methods section. The cell inoculation numbers are outlined as follows: For assays measuring cell viability, between 3,000 to 5,000 cells are seeded per well in 96-well plates. For other cellular assays, the seeding density ranges from 5×10^5 to 1×10^6 cells per well in 6-well plates.
Cells was plated into 96-well plates and incubated overnight prior to introduction of varying concentrations of compounds or control solvent. Following a 72-hour exposure period, cell viability was determined using a Cell Counting Kit-8 assay (Life-iLab, China). Dose-response curves were fitted using a four-parameter method facilitated by SoftMax Pro, which was subsequently used for the computation of IC50 values.

T3 sequence (Q15759 whole entry): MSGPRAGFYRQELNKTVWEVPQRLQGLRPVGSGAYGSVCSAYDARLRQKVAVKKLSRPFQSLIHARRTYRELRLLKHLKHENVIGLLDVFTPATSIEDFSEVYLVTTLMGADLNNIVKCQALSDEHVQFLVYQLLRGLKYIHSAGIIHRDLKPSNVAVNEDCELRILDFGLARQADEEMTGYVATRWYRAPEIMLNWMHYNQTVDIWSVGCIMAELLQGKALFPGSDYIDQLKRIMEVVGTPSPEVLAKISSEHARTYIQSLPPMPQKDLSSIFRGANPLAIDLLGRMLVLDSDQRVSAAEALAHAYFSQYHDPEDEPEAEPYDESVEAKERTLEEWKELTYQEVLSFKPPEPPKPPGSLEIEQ
T4 sequence (Q16539 2-360): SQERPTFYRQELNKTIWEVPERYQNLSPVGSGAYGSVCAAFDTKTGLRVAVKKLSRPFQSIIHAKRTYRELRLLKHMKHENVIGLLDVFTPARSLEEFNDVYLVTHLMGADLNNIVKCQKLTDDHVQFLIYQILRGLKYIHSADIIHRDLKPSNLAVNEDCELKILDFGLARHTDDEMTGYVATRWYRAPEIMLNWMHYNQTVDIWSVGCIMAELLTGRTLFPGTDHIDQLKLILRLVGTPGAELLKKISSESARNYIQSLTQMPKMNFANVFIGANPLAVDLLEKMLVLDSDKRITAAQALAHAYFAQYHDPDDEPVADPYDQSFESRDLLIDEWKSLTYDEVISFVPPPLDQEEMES

C=CC(=O)Nc1cc(-c2cc(-c3cc4c([nH]3)CCNC4=O)ccn2)ccc1OC(F)(F)F [compound 11]
inhibition at 0.01 µM (p38 [1]; 10 nM): -3% | inhibition at 0.1 µM (p38 [1]; 100 nM): -6% | inhibition at 1 µM (p38 [1]; 1000 nM): 8% | inhibition at 0.01 µM (p38 [2]; 10 nM): 5% | inhibition at 0.1 µM (p38 [2]; 100 nM): 2% | inhibition at 1 µM (p38 [2]; 1000 nM): 20% | inhibition at 0.01 µM (p38 [3]; 10 nM): -7% | inhibition at 0.1 µM (p38 [3]; 100 nM): -11% | inhibition at 1 µM (p38 [3]; 1000 nM): -4% | IC50 (p38 [4]): > 1000 nM | inhibition at 1 µM (p38 [4]; 1 µM, read-out: inhibition rate on p38 kinase): < 10% | inhibition at 0.01 µM (p38 [4]; p38-alpha/SAPK2a(h), 10 nM, read-out: Inhibition rate): 0% | inhibition at 0.1 µM (p38 [4]; p38-alpha/SAPK2a(h), 100 nM, read-out: Inhibition rate): -3% | inhibition at 1 µM (p38 [4]; p38-alpha/SAPK2a(h), 1000 nM, read-out: Inhibition rate): -5% | selectivity for MK2 over p38 (p38 [5]): over 434 fold | effect on expression levels of surface CD206 and Arg-1 [6]: suppress | IC50 at 72 h [7]: 29.9 ± 7.2 µM

Source: publication PMC11233931, “Remodeling tumor‐associated macrophage for anti‐cancer effects by rational design of irreversible inhibition of mitogen‐activated protein kinase‐activated protein kinase 2” (MedComm, 2024)
